Reference: PubChem BioAssay AID330 (DTP/NCI, 2004)
Several values for one entry are separate records, joined by “and”; a condition that tells them apart may be missing. Equal values may be shown once. Inconclusive results and toxic doses are left out. Rule for the calls: active = survival T/C of 150% or more; inactive = T/C below 125% in these data.

Tested on: P388 leukemia ip, CD2F1 mice, survival T/C
Experiment: NCI In Vivo Anticancer Drug Screen. Data for tumor model P388 Leukemia (intraperitoneal) in CD2F1 (CDF1) mice
Conditions: endpoint: median survival time, higher = longer survival
Method in brief: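 Mice carrying the transplanted tumor received test compound or vehicle. Survival was recorded in each group, and the value is the treated-group measurement divided by that of the vehicle-treated control group.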

[1] = dose: 12.5 mg/kg/injection, schedule: Q01DX009 (ip), vehicle: saline
[2] = dose: 25.0 mg/kg/injection, schedule: Q01DX009 (ip), vehicle: saline
[3] = dose: 60.0 mg/kg/injection, schedule: Q01DX005 (ip), vehicle: saline with Tween-80
[4] = dose: 120.0 mg/kg/injection, schedule: Q01DX005 (ip), vehicle: saline with Tween-80
[5] = dose: 50.0 mg/kg/injection, schedule: Q01DX009 (ip), vehicle: Klucel (hydroxypropylcellulose) (HPC)
[6] = dose: 100.0 mg/kg/injection, schedule: Q01DX009 (ip), vehicle: Klucel (hydroxypropylcellulose) (HPC)
[7] = dose: 200.0 mg/kg/injection, schedule: Q01DX009 (ip), vehicle: Klucel (hydroxypropylcellulose) (HPC)
[8] = dose: 50.0 mg/kg/injection, schedule: Q01DX009 (ip), vehicle: saline
[9] = dose: 100.0 mg/kg/injection, schedule: Q01DX009 (ip), vehicle: saline
[10] = dose: 200.0 mg/kg/injection, schedule: Q01DX009 (ip), vehicle: saline
[11] = dose: 100.0 mg/kg/injection, schedule: Q01DX005 (ip), vehicle: Klucel (hydroxypropylcellulose) (HPC)
[12] = dose: 60.0 mg/kg/injection, schedule: Q01DX005 (ip), vehicle: Klucel (hydroxypropylcellulose) (HPC)
[13] = dose: 120.0 mg/kg/injection, schedule: Q01DX005 (ip), vehicle: Klucel (hydroxypropylcellulose) (HPC)
[14] = dose: 240.0 mg/kg/injection, schedule: Q01DX005 (ip), vehicle: Klucel (hydroxypropylcellulose) (HPC)
[15] = dose: 100.0 mg/kg/injection, schedule: Q01DX001 (ip), vehicle: saline with Tween-80
[16] = dose: 240.0 mg/kg/injection, schedule: Q01DX005 (ip), vehicle: saline with Tween-80
[17] = dose: 50.0 mg/kg/injection, schedule: Q01DX009 (ip), vehicle: saline with Tween-80
[18] = dose: 100.0 mg/kg/injection, schedule: Q01DX009 (ip), vehicle: saline with Tween-80
[19] = dose: 200.0 mg/kg/injection, schedule: Q01DX009 (ip), vehicle: saline with Tween-80

Measured: T/C

CCOC(=O)[n+]1ccc(-c2cc[n+](C(=O)OCC)cc2)cc1
inactive: [1] 88 % of control | [2] 91 % of control

CC(=O)c1c(CO[N+](=O)[O-])n([O-])c2ccccc2[n+]1=O
inactive: [3] 106 % of control | [4] 104 % of control

CC1Cc2nc3ccccc3c(=O)n2O1 (stereo not drawn)
inactive: [5] 103 % of control | [6] 107 % of control | [7] 103 % of control

CCCCCN(CCCCC)c1ccc(/C=C/c2ccnc3ccccc23)cc1
inactive: [5] 98 % of control | dose: 400.0 mg/kg/injection, schedule: Q01DX009 (ip), vehicle: Klucel (hydroxypropylcellulose) (HPC) 104 % of control

CCOC(=O)N1CC2C=CC1C(C(C)=O)C2 (stereo not drawn)
inactive: [8] 110 % of control | [9] 109 % of control | [10] 109 % of control

[Cl][Hg][Cl]
inactive: dose: 0.94 mg/kg/injection, schedule: Q01DX005 (ip), vehicle: saline 95 % of control | dose: 1.88 mg/kg/injection, schedule: Q01DX005 (ip), vehicle: saline 101 % of control

O=[N+]([O-])c1cnc(Sc2ncc([N+](=O)[O-])cn2)nc1
inactive: dose: 60.0 mg/kg/injection, schedule: Q01DX005 (ip), vehicle: saline 99 % of control | dose: 120.0 mg/kg/injection, schedule: Q01DX005 (ip), vehicle: saline 102 % of control | dose: 240.0 mg/kg/injection, schedule: Q01DX005 (ip), vehicle: saline 99 % of control

Cc1ccc(NC(=S)NCC2CCCO2)cc1C (stereo not drawn)
inactive: [5] 102 % of control and 98 % of control | [6] 91 % of control | [7] 92 % of control and 93 % of control and 97 % of control

Clc1c2ccccc2cc2cccnc12
inactive: [8] 101 % of control | [9] 100 % of control | [10] 102 % of control and 86 % of control

O=C(OCc1ccccc1)ON1C(=O)C2C3C=CC(C3)C2C1=O (stereo not drawn)
inactive: dose: 50.0 mg/kg/injection, schedule: Q01DX005 (ip), vehicle: Klucel (hydroxypropylcellulose) (HPC) 115 % of control | [11] 110 % of control

NCC(O)c1cccc(C(F)(F)F)c1 (stereo not drawn)
inactive: [8] 92 % of control | [9] 100 % of control

N#Cc1nn(C(N)=O)c(N)c1C#N
inactive: [12] 104 % of control | [13] 105 % of control | [14] 103 % of control

CCC(c1ccc(OC)cc1)C(NC(=S)Nc1cccc(C)c1)c1ccc(OC)cc1 (stereo not drawn)
inactive: [15] 90 % of control | dose: 200.0 mg/kg/injection, schedule: Q01DX001 (ip), vehicle: saline with Tween-80 92 % of control | dose: 400.0 mg/kg/injection, schedule: Q01DX001 (ip), vehicle: saline with Tween-80 93 % of control

O=C(NCc1ccco1)Nc1c(Cl)cc(Cl)cc1Cl
inactive: [3] 103 % of control | [4] 100 % of control | [16] 100 % of control

Nc1ncncc1C(C1=C(O)COC1=O)C1=C(O)COC1=O
inactive: [3] 98 % of control | [4] 100 % of control | [16] 98 % of control

O=C(Oc1ccccc1)N1CCCCC1
inactive: dose: 12.5 mg/kg/injection, schedule: Q01DX001 (ip), vehicle: saline with Tween-80 95 % of control | dose: 25.0 mg/kg/injection, schedule: Q01DX001 (ip), vehicle: saline with Tween-80 99 % of control | dose: 50.0 mg/kg/injection, schedule: Q01DX001 (ip), vehicle: saline with Tween-80 106 % of control | [15] 104 % of control

COc1cc(/C=C/C(C)=N/NC(N)=O)cc(OC)c1OC
inactive: dose: 30.0 mg/kg/injection, schedule: Q01DX005 (ip), vehicle: Klucel (hydroxypropylcellulose) (HPC) 103 % of control | [12] 100 % of control | [13] 103 % of control | [14] 104 % of control

Cn1c(=O)c2c(ncn2Cc2ccc(O)c([N+](=O)[O-])c2)n(C)c1=O
inactive: dose: 25.0 mg/kg/injection, schedule: Q01DX005 (ip), vehicle: Klucel (hydroxypropylcellulose) (HPC) 91 % of control | [11] 94 % of control | dose: 200.0 mg/kg/injection, schedule: Q01DX005 (ip), vehicle: Klucel (hydroxypropylcellulose) (HPC) 92 % of control

CC(C)NNC(=O)c1ccncc1
inactive: [1] 96 % of control | [2] 101 % of control | [8] 103 % of control | [9] 96 % of control | [10] 98 % of control | dose: 400.0 mg/kg/injection, schedule: Q01DX009 (ip), vehicle: saline 64 % of control

S=C(NCCCCCCNC(=S)Nc1ccc2ccccc2n1)Nc1ccc2ccccc2n1
inactive: [5] 100 % of control | [6] 97 % of control | [7] 91 % of control

CC(=O)OC1CCC2C3C=CC4=C/C(=N/NC(N)=S)CCC4(C)C3CCC12C (stereo not drawn)
inactive: dose: 100.0 mg/kg/injection, schedule: Q01DX001 (ip), vehicle: saline 100 % of control | dose: 200.0 mg/kg/injection, schedule: Q01DX001 (ip), vehicle: saline 98 % of control | dose: 400.0 mg/kg/injection, schedule: Q01DX001 (ip), vehicle: saline 99 % of control

O=Cc1coc2ccccc2c1=O
inactive: [2] 120 % of control | [8] 110 % of control | [9] 119 % of control and 120 % of control

O=C1CN(CCCN2CCOCC2)CC(=O)N2Cc3ccccc3CN12
inactive: dose: 50.0 mg/kg/injection, schedule: Q01DX005 (ip), vehicle: saline 95 % of control | dose: 100.0 mg/kg/injection, schedule: Q01DX005 (ip), vehicle: saline 110 % of control | dose: 200.0 mg/kg/injection, schedule: Q01DX005 (ip), vehicle: saline 108 % of control

CC12CC3(C)CC(C(Cl)C(=O)O)(C1)CC(C(Cl)C(=O)O)(C2)C3 (stereo not drawn)
inactive: [17] 103 % of control | [18] 100 % of control | [19] 107 % of control

COC(=O)NC(=Nc1cccc(C(=O)c2ccc3nc(NC(=O)OC)[nH]c3c2)c1)NC(=O)OC
inactive: [4] 90 % of control

CCOC(=O)N(CCCl)N=O
inactive: dose: 0.31 mg/kg/injection, schedule: Q01DX009 (ip), vehicle: saline with Tween-80 114 % of control | dose: 0.62 mg/kg/injection, schedule: Q01DX009 (ip), vehicle: saline with Tween-80 118 % of control | dose: 2.5 mg/kg/injection, schedule: Q01DX009 (ip), vehicle: saline with Tween-80 96 % of control

COc1cc2c(c(C3(O)C(=O)N(C)c4ccccc43)c1OC)OCO2 (stereo not drawn)
inactive: [3] 101 % of control | [4] 98 % of control | [16] 98 % of control

O=C(O)C1=COC(OC2OC(CO)C(O)C(O)C2O)C2C(CO)=CCC12 (stereo not drawn)
inactive: dose: 5.0 mg/kg/injection, schedule: Q01DX009 (ip), vehicle: saline with Tween-80 99 % of control and 108 % of control | dose: 10.0 mg/kg/injection, schedule: Q01DX009 (ip), vehicle: saline with Tween-80 108 % of control and 96 % of control | dose: 20.0 mg/kg/injection, schedule: Q01DX009 (ip), vehicle: saline with Tween-80 99 % of control and 104 % of control | dose: 40.0 mg/kg/injection, schedule: Q01DX009 (ip), vehicle: saline with Tween-80 95 % of control | dose: 80.0 mg/kg/injection, schedule: Q01DX009 (ip), vehicle: saline with Tween-80 99 % of control

O=C1c2cc([N+](=O)[O-])cc3cc([N+](=O)[O-])cc(c23)C(=O)N1CCCNCCNCCCN1C(=O)c2cc([N+](=O)[O-])cc3cc([N+](=O)[O-])cc(c23)C1=O
inactive: dose: 50.0 mg/kg/injection, schedule: Q01DX005 (ip), vehicle: saline with Tween-80 100 % of control | dose: 100.0 mg/kg/injection, schedule: Q01DX005 (ip), vehicle: saline with Tween-80 100 % of control | dose: 200.0 mg/kg/injection, schedule: Q01DX005 (ip), vehicle: saline with Tween-80 100 % of control

Fc1cc(F)c(F)c(OCC2CO2)c1F (stereo not drawn)
inactive: [17] 100 % of control | [18] 94 % of control | [19] 101 % of control

O=[N+]([O-])c1cnc2ccccn12
inactive: dose: 12.5 mg/kg/injection, schedule: Q01DX009 (ip), vehicle: saline with Tween-80 100 % of control | dose: 25.0 mg/kg/injection, schedule: Q01DX009 (ip), vehicle: saline with Tween-80 93 % of control | [17] 94 % of control | [18] 95 % of control
